Measurements as given in ChEMBL document CHEMBL1201862, “PubChem BioAssay data set” (2004).
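In this assay, cells in 96-well plates receive the compound at five concentrations for 48 hours. Endpoints are linearly interpolated between the surrounding concentrations. GI50: concentration for 50% inhibition of growth.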 Activity calls are given as the source filed them. No stated cut-off is given here; in the data, active = GI50 up to about 1.1 µM and inactive = higher.

Legend:
Experiment in all cases: NCI tumour cell line growth inhibition, 48 h
U-251 = tested on: U-251
HOP-92 = tested on: HOP-92
NCI-H23 = tested on: NCI-H23
T47D = tested on: T47D
HOP-62 = tested on: HOP-62
SF-539 = tested on: SF-539
NCI-H226 = tested on: NCI-H226
RPMI-8226 = tested on: RPMI-8226
HL-60 = tested on: HL-60
EKVX = tested on: EKVX
SNB-75 = tested on: SNB-75
SK-MEL-28 = tested on: SK-MEL-28
SK-MEL-2 = tested on: SK-MEL-2
SK-MEL-5 = tested on: SK-MEL-5
SN12C = tested on: SN12C
HCT-15 = tested on: HCT-15
HT-29 = tested on: HT-29
Hs-578T = tested on: Hs-578T
UACC-257 = tested on: UACC-257
SNB-19 = tested on: SNB-19
LOX IMVI = tested on: LOX IMVI
786-0 = tested on: 786-0
COLO 205 = tested on: COLO 205
Malme-3M = tested on: Malme-3M
BT-549 = tested on: BT-549
MCF7 = tested on: MCF7
DU-145 = tested on: DU-145
RXF 393 = tested on: RXF 393
OVCAR-3 = tested on: OVCAR-3
UACC-62 = tested on: UACC-62
SW-620 = tested on: SW-620
ACHN = tested on: ACHN
A549 = tested on: A549
KM12 = tested on: KM12
SF-268 = tested on: SF-268
OVCAR-4 = tested on: OVCAR-4
NCI/ADR-RES = tested on: NCI/ADR-RES
MDA-MB-435 = tested on: MDA-MB-435
OVCAR-5 = tested on: OVCAR-5
CAKI-1 = tested on: CAKI-1
MDA-N = tested on: MDA-N
SF-295 = tested on: SF-295
MDA-MB-231 = tested on: MDA-MB-231
IGROV-1 = tested on: IGROV-1
NCI-H460 = tested on: NCI-H460
NCI-H522 = tested on: NCI-H522
CCRF-CEM = tested on: CCRF-CEM
K562 = tested on: K562
M14 = tested on: M14
SK-OV-3 = tested on: SK-OV-3
HCT-116 = tested on: HCT-116
PC-3 = tested on: PC-3
OVCAR-8 = tested on: OVCAR-8
TK-10 = tested on: TK-10
UO-31 = tested on: UO-31
SR = tested on: SR
A498 = tested on: A498
MOLT-4 = tested on: MOLT-4

O=C(NC(=S)Nc1ccc2c(c1)Sc1ccccc1O2)c1ccc([N+](=O)[O-])cc1
GI50 (U-251): > 100 µM (inactive) | GI50 (HOP-92): > 100 µM (inactive) | GI50 (NCI-H23): > 100 µM (inactive) | GI50 (T47D): > 100 µM (inactive) | GI50 (HOP-62): > 100 µM (inactive) | GI50 (SF-539): > 100 µM (inactive) | GI50 (NCI-H226): > 100 µM (inactive) | GI50 (RPMI-8226): > 100 µM (inactive) | GI50 (HL-60): > 100 µM (inactive) | GI50 (EKVX): > 100 µM (inactive) | GI50 (SNB-75): > 100 µM (inactive) | GI50 (SK-MEL-28): > 100 µM (inactive) | GI50 (SK-MEL-2): > 100 µM (inactive) | GI50 (SK-MEL-5): > 100 µM (inactive) | GI50 (SN12C): > 100 µM (inactive) | GI50 (HCT-15): > 100 µM | GI50 (HT-29): > 100 µM (inactive) | GI50 (Hs-578T): > 100 µM (inactive) | GI50 (UACC-257): > 100 µM (inactive) | GI50 (SNB-19): > 100 µM (inactive) | GI50 (LOX IMVI): > 100 µM (inactive) | GI50 (786-0): > 100 µM (inactive) | GI50 (COLO 205): > 100 µM (inactive) | GI50 (Malme-3M): > 100 µM (inactive) | GI50 (BT-549): > 100 µM (inactive) | GI50 (MCF7): > 100 µM (inactive) | GI50 (DU-145): > 100 µM (inactive) | GI50 (RXF 393): > 100 µM (inactive) | GI50 (OVCAR-3): > 100 µM (inactive) | GI50 (UACC-62): > 100 µM (inactive) | GI50 (SW-620): > 100 µM (inactive) | GI50 (ACHN): > 100 µM (inactive) | GI50 (A549): > 100 µM (inactive) | GI50 (KM12): > 100 µM (inactive) | GI50 (SF-268): > 100 µM (inactive) | GI50 (OVCAR-4): > 100 µM (inactive) | GI50 (NCI/ADR-RES): > 100 µM (inactive) | GI50 (MDA-MB-435): > 100 µM (inactive) | GI50 (OVCAR-5): > 100 µM (inactive) | GI50 (CAKI-1): > 100 µM (inactive) | GI50 (MDA-N): > 100 µM (inactive) | GI50 (SF-295): > 100 µM (inactive) | GI50 (MDA-MB-231): > 100 µM (inactive) | GI50 (IGROV-1): > 100 µM (inactive) | GI50 (NCI-H460): > 100 µM (inactive) | GI50 (NCI-H522): > 100 µM (inactive) | GI50 (CCRF-CEM): > 100 µM (inactive) | GI50 (K562): > 100 µM (inactive) | GI50 (M14): > 100 µM (inactive) | GI50 (SK-OV-3): > 100 µM (inactive) | GI50 (HCT-116): > 100 µM (inactive) | GI50 (PC-3): > 100 µM (inactive) | GI50 (OVCAR-8): > 100 µM (inactive) | GI50 (TK-10): > 100 µM (inactive) | GI50 (UO-31): > 100 µM (inactive) | GI50 (SR): > 100 µM (inactive)

CC1(C)CC(=O)c2c(nc3ccc4ccccc4c3c2-c2ccc(NC(=O)CCCCC(=O)Nc3ccc(-c4c5c(nc6ccc7ccccc7c46)CC(C)(C)CC5=O)cc3)cc2)C1
GI50 (U-251): > 100 µM (inactive) | GI50 (HOP-92): > 100 µM (inactive) | GI50 (NCI-H23): > 100 µM (inactive) | GI50 (T47D): > 100 µM (inactive) | GI50 (HOP-62): > 100 µM (inactive) | GI50 (SF-539): > 100 µM (inactive) | GI50 (NCI-H226): > 100 µM (inactive) | GI50 (RPMI-8226): > 100 µM (inactive) | GI50 (HL-60): > 100 µM (inactive) | GI50 (EKVX): > 100 µM (inactive) | GI50 (SNB-75): > 100 µM (inactive) | GI50 (SK-MEL-28): > 100 µM (inactive) | GI50 (SK-MEL-2): > 100 µM (inactive) | GI50 (SK-MEL-5): > 100 µM (inactive) | GI50 (SN12C): > 100 µM (inactive) | GI50 (HCT-15): > 100 µM | GI50 (HT-29): > 100 µM (inactive) | GI50 (Hs-578T): > 100 µM (inactive) | GI50 (UACC-257): > 100 µM (inactive) | GI50 (SNB-19): > 100 µM (inactive) | GI50 (LOX IMVI): > 100 µM (inactive) | GI50 (786-0): > 100 µM (inactive) | GI50 (COLO 205): > 100 µM (inactive) | GI50 (BT-549): > 100 µM (inactive) | GI50 (MCF7): > 100 µM (inactive) | GI50 (DU-145): > 100 µM (inactive) | GI50 (A498): > 100 µM (inactive) | GI50 (OVCAR-3): > 100 µM (inactive) | GI50 (UACC-62): > 100 µM (inactive) | GI50 (SW-620): > 100 µM (inactive) | GI50 (ACHN): > 100 µM (inactive) | GI50 (A549): > 100 µM (inactive) | GI50 (KM12): > 100 µM (inactive) | GI50 (SF-268): > 100 µM (inactive) | GI50 (NCI/ADR-RES): > 100 µM (inactive) | GI50 (MOLT-4): > 100 µM (inactive) | GI50 (MDA-MB-435): > 100 µM (inactive) | GI50 (OVCAR-5): > 100 µM (inactive) | GI50 (CAKI-1): > 100 µM (inactive) | GI50 (MDA-N): > 100 µM (inactive) | GI50 (SF-295): > 100 µM (inactive) | GI50 (MDA-MB-231): > 100 µM (inactive) | GI50 (IGROV-1): > 100 µM (inactive) | GI50 (NCI-H460): > 100 µM (inactive) | GI50 (CCRF-CEM): > 100 µM (inactive) | GI50 (K562): > 100 µM (inactive) | GI50 (M14): > 100 µM (inactive) | GI50 (SK-OV-3): > 100 µM (inactive) | GI50 (HCT-116): > 100 µM (inactive) | GI50 (PC-3): > 100 µM (inactive) | GI50 (OVCAR-8): > 100 µM (inactive) | GI50 (TK-10): > 100 µM (inactive) | GI50 (UO-31): > 100 µM (inactive) | GI50 (SR): > 100 µM (inactive)

COc1ccc(N(C(=O)OC(C)(C)C)[C@@H]2C(C)=C[C@H]([S@@+]([O-])c3ccc(C)cc3)[C@@H]3C(=O)N(C)C(=O)[C@@H]32)cc1
GI50 (U-251): 14 µM (inactive) | GI50 (HOP-92): 17.7 µM (inactive) | GI50 (NCI-H23): 20.9 µM (inactive) | GI50 (T47D): 33.6 µM (inactive) | GI50 (HOP-62): 24.4 µM (inactive) | GI50 (SF-539): 18.4 µM (inactive) | GI50 (NCI-H226): 16.6 µM (inactive) | GI50 (RPMI-8226): 14.3 µM (inactive) | GI50 (HL-60): 22 µM (inactive) | GI50 (EKVX): 2.13 µM (inactive) | GI50 (SNB-75): 4.94 µM (inactive) | GI50 (SK-MEL-28): 18.7 µM (inactive) | GI50 (SK-MEL-2): 18.5 µM (inactive) | GI50 (SK-MEL-5): 16.6 µM (inactive) | GI50 (SN12C): 11 µM (inactive) | GI50 (HCT-15): 27.5 µM | GI50 (HT-29): 21.5 µM (inactive) | GI50 (Hs-578T): 15.5 µM (inactive) | GI50 (UACC-257): 17.5 µM (inactive) | GI50 (SNB-19): 17.5 µM (inactive) | GI50 (LOX IMVI): 3.85 µM (inactive) | GI50 (786-0): 18.1 µM (inactive) | GI50 (COLO 205): 17 µM (inactive) | GI50 (Malme-3M): 18.6 µM (inactive) | GI50 (BT-549): 13.6 µM (inactive) | GI50 (MCF7): 15.2 µM (inactive) | GI50 (DU-145): 30.2 µM (inactive) | GI50 (A498): 10.1 µM (inactive) | GI50 (RXF 393): 15.3 µM (inactive) | GI50 (OVCAR-3): 27.1 µM (inactive) | GI50 (UACC-62): 18.4 µM (inactive) | GI50 (SW-620): 20.9 µM (inactive) | GI50 (ACHN): 20.5 µM (inactive) | GI50 (A549): 19.3 µM (inactive) | GI50 (KM12): 11.6 µM (inactive) | GI50 (SF-268): 12.6 µM (inactive) | GI50 (OVCAR-4): 16.5 µM (inactive) | GI50 (NCI/ADR-RES): 21.5 µM (inactive) | GI50 (MOLT-4): 27.5 µM (inactive) | GI50 (MDA-MB-435): 15 µM (inactive) | GI50 (OVCAR-5): 21.9 µM (inactive) | GI50 (CAKI-1): 25.3 µM (inactive) | GI50 (MDA-N): 18.3 µM (inactive) | GI50 (SF-295): 15.8 µM (inactive) | GI50 (MDA-MB-231): 17.4 µM (inactive) | GI50 (IGROV-1): 10.7 µM (inactive) | GI50 (NCI-H460): 25.2 µM (inactive) | GI50 (NCI-H522): 4.2 µM (inactive) | GI50 (CCRF-CEM): 5.48 µM (inactive) | GI50 (K562): 30 µM (inactive) | GI50 (M14): 32.2 µM (inactive) | GI50 (SK-OV-3): 13.2 µM (inactive) | GI50 (HCT-116): 18.6 µM (inactive) | GI50 (PC-3): 23.9 µM (inactive) | GI50 (OVCAR-8): 20.5 µM (inactive) | GI50 (TK-10): 17.1 µM (inactive) | GI50 (UO-31): 15.1 µM (inactive)
